Experimental data as given in patent publication US6133258A, “Inhibitor of kainic acid neurotoxicity and pyridothiazine derivative” (Yamanouchi Pharmaceutical Co., Ltd., priority 1995, dated 2000).

Tests used:
[1] = system: primary rat hippocampal cultures; assay: Inhibition of kainic acid neurotoxicity (LDH release) in primary rat hippocampal cultures; type: cell-based; conditions: Hippocampal neuron; 300 μM kainic acid, 24 hours, primary rat hippocampal neurons, lactate dehydrogenase release
Procedure: 1) Inhibition of kainic acid neurotoxicity
The effect of the compound of the present invention for inhibiting kainic acid neurotoxicity was studied using primary rat hippocampal cultures.
(1) Incubation conditions
The hippocampus was dissected from a brain of the 18 to 20-day-old fetal rat and was subjected to enzyme treatment with papain and DNase I to disperse the cells. The cells so obtained were suspended in MEM containing 10% serum and plated on poly-L-lysine coated 48-well plates at a density of 4×10^5 cells/cm^2. Twenty four hours later, the medium was replaced by a serum-free medium. The medium was changed twice a week. The cells which were cultured for at least 6 days were provided for the following test.
(2) Inhibition against kainic acid neurotoxicity
Neurotoxicity was assessed by an activity of lactate dehydrogenase released into the culture medium from destroyed cells. As a control, neurons which were exposed to a serum-free medium containing 300 μM kainic acid for 24 hours were used. Each compound, together with 300 μM kainic acid, was allowed to act on the neuron for 24 hours and inhibitory action of each compound against kainic acid neurotoxicity was evaluated.

DBA/2 mice = assay: Audiogenic seizure inhibitory action (anticonvulsant effect) in DBA/2 mice; type: in vivo; conditions: Mus musculus, ip, 0.75 h; i.p. 45 minutes before sound stimulation (12 kHz, 120 dB); ten male 21 to 28-day-old mice; read-out: Anticonvulsant effect for audiogenic seizure in DBA/2 mice, minimum effective dose
Procedure: 2) Measurement of audiogenic seizure inhibitory action in DBA/2 mice
The test compound was suspended in a 0.5% methylcellulose solution and the resulting suspension was intraperitoneally administered 45 minutes before the stimulation by the sound. The drug efficacy was evaluated by presence or absence of the appearance of seizure and the minimum effective dose was determined.

[2] = system: NMDA excitotoxicity or experimental animal models for epilepsy, cerebral ischemia; conditions: literature; cited from earlier work
AMPA receptor = conditions: literature; cited from earlier work
AMPA-induced cell death = conditions: literature; cited from earlier work
[3] = system: experimental animal model for cerebral ischemia; conditions: literature; cited from earlier work

SMILES | IC50 [1] | minimal effective dose (DBA/2 mice) | effect in experimental animal model for cerebral ischemia [3] | also measured
Cc1cccc(N(C)c2nc(=O)c3cccnc3s2)c1 [Example 72, 2-[N-Methyl-N-(3-methylphenyl)amino]-4H-pyrido[3,2-e]-1,3-thiazin-4-one] | 1.9 µM | 30 mg/kg | – | –
NC(CCCP(=O)(O)O)C(=O)O (centres unmarked) [2-amino-5-phosphonovaleric acid] | – | – | – | protective effect against NMDA excitotoxicity or in experimental animal models for epilepsy, cerebral ischemia, etc. [2]: protective against NMDA excitotoxicity or in experimental animal models for epilepsy, cerebral ischemia, etc.
NS(=O)(=O)c1cc2c(cc1Cl)NC(C1CC3C=CC1C3)NS2(=O)=O (centres unmarked) [cyclothiazide] | – | – | – | effect on AMPA receptor desensitization (AMPA receptor): desensitization inhibitor; effect on AMPA-induced cell death (AMPA-induced cell death): accelerate AMPA-induced cell death
NC(CCCCCP(=O)(O)O)C(=O)O (centres unmarked) [2-amino-7-phosphonoheptanoic acid] | – | – | – | protective effect against NMDA excitotoxicity or in experimental animal models for epilepsy, cerebral ischemia, etc. [2]: protective against NMDA excitotoxicity or in experimental animal models for epilepsy, cerebral ischemia, etc.
NS(=O)(=O)c1cccc2c1c([N+](=O)[O-])cc1[nH]c(=O)c(=O)[nH]c12 [NBQX] | – | – | effective in the experimental animal model for cerebral ischemia | –
CN(c1ccc(Br)cc1)c1nc(=O)c2cccnc2s1 [16-2), 2-[N-(4-Bromophenyl)-N-methylamino]-4H-pyrido[3,2-e]-1,3-thiazin-4-one] | 1 µM | 30 mg/kg | – | –
CN(c1ccc(Cl)cc1)c1nc(=O)c2cccnc2s1 [Example 64, 2-[N-(4-Chlorophenyl)-N-methylamino]-4H pyrido[3,2-e]-1,3-thiazin-4-one] | 1.4 µM | 10 mg/kg | – | –
NC1CCN(O)C1=O (centres unmarked) [HA-966] | – | – | effective in an experimental animal model for cerebral ischemia | –
CC1=NN=C(c2ccc(N)cc2)c2cc3c(cc2C1)OCO3 [GYKI52466] | – | – | effective in an experimental animal model for cerebral ischemia | effect on AMPA receptor desensitization (AMPA receptor): counteracts the inhibition of desensitization by cyclothiazide
